System: triple transgenic AD (3×Tg-AD) mouse model
Assay: 2-DG diet in triple transgenic Alzheimer's mouse model
Assay type: in vivo
Conditions: low-density gene array (LDA array) analyses
Protocol: It has been shown that mitochondrial bioenergetic deficits precede Alzheimer's disease (AD) pathology in the triple transgenic AD (3×Tg-AD) mouse model. […] In the current study, the impact of 2-deoxy-D-glucose (2-DG), a compound known to regulate glucose metabolism and induce ketogenesis, on both brain bioenergetics and AD pathology was evaluated.
3×Tg-AD female at 6 month were fed with either a regular diet (AIN-93G) or diet containing 0.04% 2-DG for 7 weeks.

Question: What does the source list for `OCC1OC(O)CC(O)C1O` [2-DG, 2-deoxy-D-glucose]?
Answer: Tau phosphorylation: reduced; amyloid production: decreased
